Experimental data: the supplement of paper PMC10307832

Columns and labels:
Experiment in all cases: relative viability (nuclei count vs DMSO), 5 days (fraction); higher = more cells survive
NCI-H2023 = test system: NCI-H2023
Outline: (§1)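 Dosing by pin tool came one day after lung cancer cell lines were seeded in 1536-well plates, using either one drug or a fixed anchor-drug dose plus five library-drug doses (not always all listed) in √10 steps. After 5 days, nuclei were counted on 4× images. Relative viability is treated-well nuclei count divided by vehicle-well nuclei count, and values are medians of duplicate plates.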

BEN = test system: BEN
Outline: as §1

NCI-H3122 = test system: NCI-H3122
Outline: as §1

NCI-H1666 = test system: NCI-H1666
Outline: as §1

COR-L 105 = test system: COR-L 105
Outline: as §1

NCI-H1437 = test system: NCI-H1437
Outline: as §1

HCC-366 = test system: HCC-366
Outline: as §1

NCI-H661 = test system: NCI-H661
Outline: as §1

LK-2 = test system: LK-2
Outline: as §1

PC-14 = test system: PC-14
Outline: as §1

EKVX = test system: EKVX
Outline: as §1

COR-L23 = test system: COR-L23
Outline: as §1

ABC-1 = test system: ABC-1
Outline: as §1

NCI-H2009 = test system: NCI-H2009
Outline: as §1

NCI-H441 = test system: NCI-H441
Outline: as §1

HARA = test system: HARA
Outline: as §1

SW 900 = test system: SW 900
Outline: as §1

NCI-H727 = test system: NCI-H727
Outline: as §1

201T = test system: 201T
Outline: as §1

LU99A = test system: LU99A
Outline: as §1

NCI-H2170 = test system: NCI-H2170
Outline: as §1

NCI-H1650 = test system: NCI-H1650
Outline: as §1

CAL-12T = test system: CAL-12T
Outline: as §1

NCI-H838 = test system: NCI-H838
Outline: as §1

## CC(C)Oc1cc(Nc2nc(N[C@@H](C)c3ccc(F)cn3)ncc2Cl)n[nH]1 [AZ23] + O=C(CCCCCCC(=O)Nc1ccccc1)NO [Vorinostat] (partner 1 µM)
NCI-H2023; first compound 0.03162 µM
  relative viability: 0.605
NCI-H2023; first compound 0.3162 µM
  relative viability: 0.861
BEN; first compound 0.01 µM
  relative viability: 0.599
BEN; first compound 0.03162 µM
  relative viability: 0.659
BEN; first compound 0.3162 µM
  relative viability: 0.597
NCI-H3122; first compound 0.01 µM
  relative viability: 1.45
NCI-H3122; first compound 0.03162 µM
  relative viability: 1.05
NCI-H3122; first compound 0.3162 µM
  relative viability: 1.03
NCI-H1666; first compound 0.01 µM
  relative viability: 0.859
NCI-H1666; first compound 0.03162 µM
  relative viability: 0.977
NCI-H1666; first compound 0.3162 µM
  relative viability: 1.03
COR-L 105; first compound 0.01 µM
  relative viability: 0.698
COR-L 105; first compound 0.03162 µM
  relative viability: 0.799
COR-L 105; first compound 0.3162 µM
  relative viability: 0.841
NCI-H1437; first compound 0.01 µM
  relative viability: 0.981
NCI-H1437; first compound 0.03162 µM
  relative viability: 0.929
NCI-H1437; first compound 0.3162 µM
  relative viability: 0.809
HCC-366; first compound 0.01 µM
  relative viability: 0.299
HCC-366; first compound 0.03162 µM
  relative viability: 0.428
HCC-366; first compound 0.3162 µM
  relative viability: 0.441
NCI-H661; first compound 0.01 µM
  relative viability: 0.814
NCI-H661; first compound 0.03162 µM
  relative viability: 0.769
NCI-H661; first compound 0.3162 µM
  relative viability: 0.87
LK-2; first compound 0.01 µM
  relative viability: 0.22
LK-2; first compound 0.03162 µM
  relative viability: 0.216
LK-2; first compound 0.3162 µM
  relative viability: 0.3
PC-14; first compound 0.01 µM
  relative viability: 0.284
PC-14; first compound 0.03162 µM
  relative viability: 0.874
PC-14; first compound 0.3162 µM
  relative viability: 0.905
EKVX; first compound 0.01 µM
  relative viability: 0.811
EKVX; first compound 0.03162 µM
  relative viability: 0.683
EKVX; first compound 0.3162 µM
  relative viability: 0.675
COR-L23; first compound 0.01 µM
  relative viability: 0.164
COR-L23; first compound 0.03162 µM
  relative viability: 0.498
COR-L23; first compound 0.3162 µM
  relative viability: 0.424
ABC-1; first compound 0.01 µM
  relative viability: 0.957
ABC-1; first compound 0.03162 µM
  relative viability: 1.15
ABC-1; first compound 0.3162 µM
  relative viability: 1.19
NCI-H2009; first compound 0.01 µM
  relative viability: 0.704
NCI-H2009; first compound 0.03162 µM
  relative viability: 0.787
NCI-H2009; first compound 0.3162 µM
  relative viability: 0.793
NCI-H441; first compound 0.01 µM
  relative viability: 0.825
NCI-H441; first compound 0.03162 µM
  relative viability: 0.842
NCI-H441; first compound 0.3162 µM
  relative viability: 0.738
HARA; first compound 0.01 µM
  relative viability: 0.58
HARA; first compound 0.03162 µM
  relative viability: 0.471
HARA; first compound 0.3162 µM
  relative viability: 0.383
SW 900; first compound 0.01 µM
  relative viability: 0.367
SW 900; first compound 0.3162 µM
  relative viability: 0.544
NCI-H727; first compound 0.01 µM
  relative viability: 1.07
NCI-H727; first compound 0.03162 µM
  relative viability: 1.13
NCI-H727; first compound 0.3162 µM
  relative viability: 1.37
201T; first compound 0.01 µM
  relative viability: 1.05
201T; first compound 0.03162 µM
  relative viability: 1.09
201T; first compound 0.3162 µM
  relative viability: 1.08
LU99A; first compound 0.01 µM
  relative viability: 0.516
LU99A; first compound 0.03162 µM
  relative viability: 0.6
LU99A; first compound 0.3162 µM
  relative viability: 0.493
NCI-H2170; first compound 0.01 µM
  relative viability: 0.958
NCI-H2170; first compound 0.03162 µM
  relative viability: 0.937
NCI-H2170; first compound 0.3162 µM
  relative viability: 0.906
NCI-H1650; first compound 0.01 µM
  relative viability: 0.441
NCI-H1650; first compound 0.03162 µM
  relative viability: 1.16
NCI-H1650; first compound 0.3162 µM
  relative viability: 0.737
CAL-12T; first compound 0.03162 µM
  relative viability: 1.03
CAL-12T; first compound 0.3162 µM
  relative viability: 0.88
NCI-H838; first compound 0.01 µM
  relative viability: 0.768
NCI-H838; first compound 0.03162 µM
  relative viability: 0.687
NCI-H838; first compound 0.3162 µM
  relative viability: 0.626
